One experiment addresses T1, IKZF1 (Homo sapiens, UniProt Q13422+Q96SW2).
T1 construct: expressed in transfected cells
As to the kind of experiment: HEK293 HiBiT in vitro degradation of IKZF1. The class given is cell-based. The following applies: for Dmax: HEK293, HEK293 HiBiT, maximum degradation at the highest concentration tested; for DC50: HEK293 HiBiT, 18-24 hr incubation, normalized to DMSO control, read-out: IKZF1 EC50. The essentials: (§1)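 Flp-In T-REx HEK293 stable pools carry a single integrated copy of C-terminal HiBiT-tagged IKZF1, IKZF2 or SALL4 under a tetracycline operator, induced overnight at 37 °C with doxycycline ([…] final). Cells were then treated with serially diluted compounds for 18-24 h. Nano-Glo lytic luminescence gave EC50 and Dmax.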

In the next experiment the target is IKZF2 (Homo sapiens, UniProt Q96SW2+Q9UKS7). As to the kind of experiment: HEK293 HiBiT in vitro degradation of IKZF2. The class given is cell-based. To be noted: for Dmax: HEK293, HEK293 HiBiT, maximum degradation at the highest concentration tested; for DC50: HEK293 HiBiT, 18-24 hr incubation, normalized to DMSO control, read-out: IKZF2 EC50. More on the design: expressed in transfected cells. The essentials:
as §1
Background: With HiBiT, luminescence reflects the tagged protein that the partner subunit can reach.

One may read the Dmax as the largest share of the target that was removed. A lower Dmax goes with shallow degradation.

Some results are limits rather than exact numbers.

T1 sequence (Q13422 whole entry): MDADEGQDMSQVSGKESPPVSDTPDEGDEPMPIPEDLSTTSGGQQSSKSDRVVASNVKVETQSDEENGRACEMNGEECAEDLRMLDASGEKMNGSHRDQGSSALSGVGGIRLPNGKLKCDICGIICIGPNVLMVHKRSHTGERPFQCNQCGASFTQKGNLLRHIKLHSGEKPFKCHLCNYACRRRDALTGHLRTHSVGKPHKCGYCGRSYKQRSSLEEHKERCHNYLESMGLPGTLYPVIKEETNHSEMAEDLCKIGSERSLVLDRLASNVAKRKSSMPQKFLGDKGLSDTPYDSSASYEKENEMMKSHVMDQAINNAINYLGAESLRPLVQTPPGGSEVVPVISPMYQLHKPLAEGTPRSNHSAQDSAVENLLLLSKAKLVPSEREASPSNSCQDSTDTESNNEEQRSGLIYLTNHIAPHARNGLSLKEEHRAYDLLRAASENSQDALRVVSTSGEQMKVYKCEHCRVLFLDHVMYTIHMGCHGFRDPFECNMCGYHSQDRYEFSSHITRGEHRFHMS
T1 sequence (Q96SW2 whole entry): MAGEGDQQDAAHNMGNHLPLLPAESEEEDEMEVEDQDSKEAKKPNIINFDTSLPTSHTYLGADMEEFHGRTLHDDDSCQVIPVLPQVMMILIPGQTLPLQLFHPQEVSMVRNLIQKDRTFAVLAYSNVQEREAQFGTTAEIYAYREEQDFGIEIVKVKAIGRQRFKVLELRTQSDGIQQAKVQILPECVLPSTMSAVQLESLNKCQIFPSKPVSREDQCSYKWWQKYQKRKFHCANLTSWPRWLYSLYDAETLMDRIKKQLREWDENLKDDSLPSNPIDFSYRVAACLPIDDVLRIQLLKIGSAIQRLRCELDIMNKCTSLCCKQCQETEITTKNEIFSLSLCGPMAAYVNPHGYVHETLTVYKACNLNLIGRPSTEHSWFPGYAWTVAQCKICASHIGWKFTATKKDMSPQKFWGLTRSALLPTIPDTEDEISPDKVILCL
T1 sequence (Q16531 whole entry partner): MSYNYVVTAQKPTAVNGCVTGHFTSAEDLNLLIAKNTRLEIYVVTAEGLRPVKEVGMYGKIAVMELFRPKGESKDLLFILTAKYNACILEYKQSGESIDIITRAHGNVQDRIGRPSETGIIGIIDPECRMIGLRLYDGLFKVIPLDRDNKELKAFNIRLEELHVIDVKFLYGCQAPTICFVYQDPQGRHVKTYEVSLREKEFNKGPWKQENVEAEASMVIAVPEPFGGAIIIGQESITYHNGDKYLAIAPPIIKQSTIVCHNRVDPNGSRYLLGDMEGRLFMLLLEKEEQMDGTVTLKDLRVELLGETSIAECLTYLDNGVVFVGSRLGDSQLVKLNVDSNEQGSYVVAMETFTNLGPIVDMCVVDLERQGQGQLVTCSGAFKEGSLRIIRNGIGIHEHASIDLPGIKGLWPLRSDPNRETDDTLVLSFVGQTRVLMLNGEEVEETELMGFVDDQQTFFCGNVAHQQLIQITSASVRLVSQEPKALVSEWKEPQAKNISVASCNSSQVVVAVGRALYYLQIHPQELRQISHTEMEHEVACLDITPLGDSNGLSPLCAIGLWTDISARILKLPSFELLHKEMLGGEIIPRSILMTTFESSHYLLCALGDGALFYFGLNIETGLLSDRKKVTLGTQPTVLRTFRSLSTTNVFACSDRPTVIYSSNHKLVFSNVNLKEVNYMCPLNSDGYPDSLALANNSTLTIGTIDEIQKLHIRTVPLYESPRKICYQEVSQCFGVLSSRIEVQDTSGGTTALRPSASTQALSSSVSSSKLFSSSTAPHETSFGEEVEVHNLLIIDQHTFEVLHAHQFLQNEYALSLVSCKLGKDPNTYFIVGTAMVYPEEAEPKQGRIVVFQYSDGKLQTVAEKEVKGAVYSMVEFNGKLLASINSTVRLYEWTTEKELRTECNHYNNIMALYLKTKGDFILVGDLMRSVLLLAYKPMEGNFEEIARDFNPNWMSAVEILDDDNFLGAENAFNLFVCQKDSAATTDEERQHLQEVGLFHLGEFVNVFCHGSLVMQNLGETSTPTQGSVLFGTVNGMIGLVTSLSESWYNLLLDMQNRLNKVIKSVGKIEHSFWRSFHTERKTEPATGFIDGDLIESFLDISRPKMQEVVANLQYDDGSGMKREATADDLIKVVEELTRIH
IKZF2, sequence (Q9UKS7 1-500 isoform Q9UKS7-2): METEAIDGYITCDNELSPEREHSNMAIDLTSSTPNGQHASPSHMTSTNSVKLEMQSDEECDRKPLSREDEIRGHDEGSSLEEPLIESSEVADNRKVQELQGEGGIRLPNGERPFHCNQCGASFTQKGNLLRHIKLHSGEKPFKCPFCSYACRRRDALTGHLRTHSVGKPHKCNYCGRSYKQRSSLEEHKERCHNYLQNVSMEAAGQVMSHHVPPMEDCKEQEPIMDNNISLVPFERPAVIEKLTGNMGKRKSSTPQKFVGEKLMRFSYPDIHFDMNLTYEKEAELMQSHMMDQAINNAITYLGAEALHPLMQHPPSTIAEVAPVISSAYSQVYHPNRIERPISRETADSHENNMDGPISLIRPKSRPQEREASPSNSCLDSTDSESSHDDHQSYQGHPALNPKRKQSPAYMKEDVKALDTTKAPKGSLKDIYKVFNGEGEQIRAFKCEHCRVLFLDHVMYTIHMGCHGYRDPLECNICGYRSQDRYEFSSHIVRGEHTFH
IKZF2, sequence (Q96SW2 whole entry): as the sequence (Q96SW2 whole entry) above
IKZF2, sequence (Q16531 whole entry partner): as the sequence (Q16531 whole entry partner) above

For `O=C1CCC(N2Cc3cc(C[C@H]4CCCC[C@@H]4NCc4cccnc4C(F)(F)F)ccc3C2=O)C(=O)N1` (stereo partly drawn) [Example 58, 3-(1-oxo-5-(((1R,2S)-2-(((2-(trifluoromethyl)pyridin-3-yl)methyl)amino)cyclohexyl)methyl)isoindolin-2-yl)piperidine-2,6-dione], on IKZF1, the Dmax worked out at 34% and the DC50 stood at 206 nM. At IKZF2, the Dmax turned out to be 75% and the DC50 came to 46 nM.
In the case of `O=C1CCC(N2Cc3cc(C[C@H]4CCCC[C@@H]4NCc4cnccn4)ccc3C2=O)C(=O)N1` (stereo partly drawn) [Example 59, 3-(1-oxo-5-(((1R,2S)-2-((pyrazin-2-ylmethyl)amino)cyclohexyl)methyl)isoindolin-2-yl)piperidine-2,6-dione], the DC50 on IKZF1 is above 1000 nM. On IKZF2, the Dmax came out at 77% and the DC50 came to 75 nM.
In the same order, the values of `O=C1CCC(N2Cc3cc(C[C@H]4CCCC[C@@H]4NCC4OCCO4)ccc3C2=O)C(=O)N1` (stereo partly drawn) [Example 60, 3-(5-(((1R,2S)-2-(((1,3-dioxolan-2-yl)methyl)amino)cyclohexyl)methyl)-1-oxoisoindolin-2-yl)piperidine-2,6-dione] are above 1000 nM, 63% and 65 nM.
On the same counts, the results for `C[C@@H](N[C@H]1CCCC[C@@H]1Cc1ccc2c(c1)CN(C1CCC(=O)NC1=O)C2=O)c1ccccc1` (stereo partly drawn) [Example 61, 3-(1-oxo-5-(((1R,2S)-2-(((R)-1-phenylethyl)amino)cyclohexyl)methyl)isoindolin-2-yl)piperidine-2,6-dione] are above 1000 nM, 95% and 23 nM.
In the same order, the values of `O=C1CCC(N2Cc3cc(C[C@H]4CCCC[C@@H]4NCc4cccnc4F)ccc3C2=O)C(=O)N1` (some centres unmarked) [Example 62] are above 1000 nM, 79% and 56 nM.
As to `O=C1CCC(N2Cc3cc(C[C@H]4CCCC[C@@H]4NCCOc4ccccc4Cl)ccc3C2=O)C(=O)N1` (some centres unmarked) [Example 65], the DC50 at IKZF1 is above 1000 nM. For the same compound, on IKZF2, the Dmax stood at 64% and the DC50 worked out at 48 nM.
With `C[C@H](N[C@H]1CCCC[C@@H]1Cc1ccc2c(c1)CN(C1CCC(=O)NC1=O)C2=O)c1ccccc1` (stereo partly drawn) [Example 66, 3-(1-oxo-5-(((1R,2S)-2-(((S)-1-phenylethyl)amino)cyclohexyl)methyl)isoindolin-2-yl)piperidine-2,6-dione], the DC50 at IKZF1 is above 1000 nM. At IKZF2, the Dmax amounted to 89% and the DC50 turned out to be 17 nM.
`O=C1CCC(N2Cc3cc(C[C@H]4CCCC[C@@H]4N4CC(OCC5CC5)C4)ccc3C2=O)C(=O)N1` (stereo partly drawn) [Example 67, 3-(5-(((1R,2S)-2-(3-(cyclopropylmethoxy)azetidin-1-yl)cyclohexyl)methyl)-1-oxo-isoindolin-2-yl)piperidine-2,6-dione]: the DC50 at IKZF1 was above 1000 nM. At IKZF2, the Dmax turned out to be 74% and the DC50 was determined as 30 nM.
With `O=C1CCC(N2Cc3cc(C[C@H]4CCCC[C@@H]4NCC4COC4)ccc3C2=O)C(=O)N1` (stereo partly drawn) [Example 68, 3-(5-(((1R,2S)-2-((oxetan-3-ylmethyl)amino)cyclohexyl)methyl)-1-oxoisoindolin-2-yl)piperidine-2,6-dione], the DC50 on IKZF1 is above 1000 nM. Moreover, on IKZF2, the Dmax stood at 91% and the DC50 came to 31 nM.
Take `O=C1CCC(N2Cc3cc(C[C@H]4CCCC[C@@H]4NCC4CCOC4)ccc3C2=O)C(=O)N1` (some centres unmarked) [Example 69]: the values for the DC50 on IKZF1 and on IKZF2 were above 1000 nM and 19 nM, respectively. The compound also registered a Dmax at IKZF2 of 91%.
In the same order, the values of `O=C1CCC(N2Cc3cc(C[C@H]4CCCC[C@@H]4N(CC4CCOCC4)CC4CCOCC4)ccc3C2=O)C(=O)N1` (some centres unmarked) [Example 70] are above 1000 nM, 80 nM and 48%.
Turning to `O=C1CCC(N2Cc3cc(C[C@H]4CCCC[C@@H]4NCC4CCOCC4)ccc3C2=O)C(=O)N1` (some centres unmarked) [Example 71], the DC50 on IKZF1 was above 1000 nM. At IKZF2, the Dmax stood at 89% and the DC50 came to 37 nM.
In the same order, the values of `O=C1CCC(N2Cc3cc(C[C@H]4CCCC[C@@H]4NC4COC4)ccc3C2=O)C(=O)N1` (some centres unmarked) [Example 72] are above 1000 nM, 83% and 35 nM.
On to `O=C1CCC(N2Cc3cc(C[C@H]4CCCC[C@@H]4NC4CCOC4)ccc3C2=O)C(=O)N1` (some centres unmarked) [Example 73], for which the DC50 on IKZF1 was above 1000 nM. At IKZF2, the Dmax is 95% and the DC50 came out at 7 nM.
With `CCOC1CC(N[C@H]2CCCC[C@@H]2Cc2ccc3c(c2)CN(C2CCC(=O)NC2=O)C3=O)C1` (some centres unmarked) [Example 75], the Dmax at IKZF1 came to 51%; at IKZF2, 95%. Besides, the DC50 at IKZF1 was found to be 888 nM; at IKZF2, 7 nM.
With `COc1ccccc1CCN[C@H]1CCCC[C@@H]1Cc1ccc2c(c1)CN(C1CCC(=O)NC1=O)C2=O` (some centres unmarked) [Example 76], the DC50 at IKZF1 was above 1000 nM. In addition, at IKZF2, the Dmax amounted to 84% and the DC50 was 34 nM.
Regarding `CC(COc1ccccc1)N[C@H]1CCCC[C@@H]1Cc1ccc2c(c1)CN(C1CCC(=O)NC1=O)C2=O` (some centres unmarked) [Example 77], the values for the DC50 at IKZF1 and on IKZF2 were above 1000 nM and 11 nM, respectively. The compound further showed a Dmax at IKZF2 of 90%.
As for `CCOCC(C)N[C@H]1CCCC[C@@H]1Cc1ccc2c(c1)CN(C1CCC(=O)NC1=O)C2=O` (some centres unmarked) [Example 78], the DC50 on IKZF1 is above 1000 nM. At IKZF2, the Dmax is 92% and the DC50 came out at 16 nM.
Regarding `O=C1CCC(N2Cc3cc(C[C@H]4CCCC[C@@H]4NC4CC5(COC5)C4)ccc3C2=O)C(=O)N1` (stereo partly drawn) [Example 80, 3-(5-(((1R,2S)-2-((2-oxaspiro[3.3]heptan-6-yl)amino)cyclohexyl)methyl)-1-oxoisoindolin-2-yl)piperidine-2,6-dione], at IKZF1, the Dmax worked out at 32% and the DC50 amounted to 299 nM. Also, on IKZF2, the Dmax was found to be 95% and the DC50 came to 33 nM.
On the same counts, the results for `O=C1CCC(N2Cc3c(ccc(C[C@H]4CCCC[C@@H]4NCC4CC(F)(F)C4)c3F)C2=O)C(=O)N1` (stereo partly drawn) [Example 81, 3-(5-(((1R,2S)-2-(((3,3-difluorocyclobutyl)methyl)amino)cyclohexyl)methyl)-4-fluoro-1-oxoisoindolin-2-yl)piperidine-2,6-dione] are 41%, 28 nM, 96% and 4 nM.
Turning to `O=C1CCC(N2Cc3cc(C[C@H]4CCCC[C@@H]4NCC45CCC(CC4)CC5)ccc3C2=O)C(=O)N1` (stereo partly drawn) [Example 83, 3-(5-(((1R,2S)-2-((bicyclo[2.2.2]octan-1-ylmethyl)amino)cyclohexyl)methyl)-1-oxoisoindolin-2-yl)piperidine-2,6-dione], the DC50 at IKZF1 is above 1000 nM. In addition, at IKZF2, the Dmax was found to be 92% and the DC50 was determined as 37 nM.
Take `O=C1CCC(N2Cc3cc(C[C@H]4CCCC[C@@H]4NC4CCC5(CC4)COC5)ccc3C2=O)C(=O)N1` (stereo partly drawn) [Example 86, 3-(5-(((1R,2S)-2-((2-oxaspiro[3.5]nonan-7-yl)amino)cyclohexyl)methyl)-1-oxoisoindolin-2-yl)piperidine-2,6-dione]: on IKZF1, the Dmax is 34% and the DC50 stood at 141 nM. In addition, at IKZF2, the Dmax amounted to 97% and the DC50 amounted to 12 nM.

Source of the values: patent US11897862B2 (Gilead Sciences, Inc., priority 2022, dated 2024).
